# Values of other authors in patent US20230173142A1, “BALLISTIC DELIVERY TO MULTILAYERED TISSUES AND RELATED PARTICLES, COMPOSITIONS, METHODS AND SYSTEMS” (CALIFORNIA INSTITUTE OF TECHNOLOGY, priority 2021, published 2023).
# “Also recorded” adds a separate entry of the source. Like-named read-outs stand apart in the source and are kept apart here.
# Key:
# ear hole punch injury = conditions: multiple peripheral subcutaneous injections of hydrogel over a 10-day period; Swiss Webster mice
# lysyl oxidase (LOX) = target: T1, lysyl oxidase (LOX) (Homo sapiens, UniProt P28300); conditions: increasing [Cu^2+]
# T1 sequence (P28300 169-417): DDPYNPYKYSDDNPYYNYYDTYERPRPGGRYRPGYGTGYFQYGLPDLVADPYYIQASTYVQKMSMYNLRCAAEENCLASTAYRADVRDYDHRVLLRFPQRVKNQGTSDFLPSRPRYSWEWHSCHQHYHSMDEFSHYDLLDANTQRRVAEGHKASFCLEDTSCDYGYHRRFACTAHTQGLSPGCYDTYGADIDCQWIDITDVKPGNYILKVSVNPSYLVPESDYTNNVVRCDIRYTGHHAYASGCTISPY
# rabbit corneas = rabbit corneas ex vivo
# rabbit cornea = rabbit cornea treated topically
compound,measurement,setting,value
"O=C(O)c1c[nH]c2c(ccc3cccnc32)c1=O [1,4-DPCA, 1,4-dihydrophenonthrolin-4-one-3-carboxylic acid]",wound healing after ear hole punch injury,ear hole punch injury,regenerative wound healing
SDF-1: stromal cell-derived factor-1,Effect,wound healing; Material: Hydrogel,Accelerated wound healing and increased vascularization
VEGF,Effect,wound healing; Material: Hydrogel,"Enhanced wound healing, granulation, collagen deposition,"
same,Effect,wound healing; Material: Lyotropic liquid crystal,Enhanced vascularization
aFGF: growth factor/cytokine loaded in hydrogel,Effect,wound healing; Material: Hydrogel,"Accelerated cell proliferation, neo-vascularization, and wound healing"
bFGF: growth factor/cytokine loaded in carrier material,Effect,wound healing; Material: Concentrate,"Enhanced wound closure, angiogenesis, collagen deposition,"
same,Effect,wound healing; Material: Hydrogel,"Enhanced wound closure, collagen deposition, vascularization,; also recorded: Enhanced wound closure, organized collageno depostion,; also recorded: Enhanced the formation of granulation tissue, increased angiogenesis,"
[Cu+2] [Copper],LOX activity,lysyl oxidase (LOX),restore LOX activity
same,biomechanical strength,human cadaver corneas,increase biomechanical strength
same,biomechanical strength,rabbit corneas,increase biomechanical strength
same,crosslinking as measured by LNL,rabbit cornea,increase crosslinking
EGF: growth factor loaded in carrier material,Effect,wound healing; Material: Nanoparticle,"Accelerated migration of inflammatory cells during the inflammation; also recorded: Enhanced wound closure, collagen deposition, angiogenesis, and"
